Assay results published in PMC12752627, “Discovery of a Potent and Selective TEAD Degrader with Durable Degradation Activity” (Advanced Science, 2025).

Key:
SmBiT-CRBN+LgBiT-TEAD1 = target: T1, SmBiT-CRBN+LgBiT-TEAD1 (Homo sapiens, UniProt P28347+Q96SW2); assay: NanoBiT recruitment assay (ternary complex formation) in HEK293T cells; assay type: cell-based; conditions: 3 h
T1 construct: ternary complex formation between CRBN (41‐442) and TEAD1‐YBD (208‐424) in HEK293T cells; expressed in transfected cells; host or cells: HEK293T (transient co-transfection)
Procedure: CRBN was cloned into the SmBiT Flexi vector pFN35K (Promega), while TEAD1 was cloned into the Promega LgBiT Flexi vector pFN33K (Promega). A total of 8 µg of plasmid DNA, consisting of 2 µg of SmBiT‐CRBN plasmid and 6 µg of LgBiT‐TEAD1 plasmid, was mixed with 24 µL of the liposome transfection reagent Lipo2000 (Meilunbio, #MA0672), added to 300 µL of Opti‐MEM Reduced Serum medium (Meilunbio, #PWL042), and incubated for 20 min at room temperature. The resulting mixture was then added to 3 mL of HEK293T cell suspension at a density of 1 × 10^6 cells mL^−1 in DMEM medium containing 1% FBS, mixed thoroughly, and 18.4 µL of the mixture was transferred to each well of a white 384‐well plate (Corning, #3570), followed by incubation for 24 h. Subsequently, 2.5 µL of MLN4924 (MCE, #HY‐70062) was added to reach a final concentration of 1 µM, and the cells were incubated for an additional 4 h. Next, 3 µL of compound KG‐FP‐003 at the indicated concentrations was added, and incubation continued for 3 more hours. Afterward, a mixture of Nano‐Glo Live Cell Substrate and Nano‐Glo LCS Dilution Buffer (Promega, #N2011) was added to the 384‐well plates at 6 µL per well and incubated for 20 min at room temperature. Finally, the luminescence signal was measured using an Envision plate reader (Revvity), and the data were analyzed using GraphPad Prism 9.5 software.

867 cancer cell lines = assay: PRISM assay (barcoded cell line screening, 5 days); assay type: cell-based; set-up: KG-FP-003-AUC: scale not given here;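 further: top test concentration 10 mM in eight-point dilution series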
Procedure: The principle of the PRISM assay has been described elsewhere and was conducted as previously outlined by the PRISM team at the Broad Institute.^[ [14], [31] ^] In PRISM (MTS027) experiments, KG‐FP‐003 was tested across 867 different cancer cell lines. Cells were treated with eight concentration gradients, ranging from 4.6 nM to […], in triplicate dilutions over a period of five days. Each plate was treated with 20 µM bortezomib as a positive control and DMSO as a negative control. Three replicate experiments were performed for each compound. The resulting data were analyzed using GraphPad PRISM 9.5.

T1 sequence (Q96SW2 41-442): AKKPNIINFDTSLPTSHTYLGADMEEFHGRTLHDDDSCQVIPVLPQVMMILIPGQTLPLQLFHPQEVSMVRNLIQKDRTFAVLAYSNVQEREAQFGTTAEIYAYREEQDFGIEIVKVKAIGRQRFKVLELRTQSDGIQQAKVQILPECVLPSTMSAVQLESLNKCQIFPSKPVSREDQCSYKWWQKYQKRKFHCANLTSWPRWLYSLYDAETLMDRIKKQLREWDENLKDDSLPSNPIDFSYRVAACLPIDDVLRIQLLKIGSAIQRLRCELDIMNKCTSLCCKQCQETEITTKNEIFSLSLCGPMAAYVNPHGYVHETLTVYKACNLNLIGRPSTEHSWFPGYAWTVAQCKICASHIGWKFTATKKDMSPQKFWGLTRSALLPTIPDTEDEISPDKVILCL
T1 sequence (P28347 208-424): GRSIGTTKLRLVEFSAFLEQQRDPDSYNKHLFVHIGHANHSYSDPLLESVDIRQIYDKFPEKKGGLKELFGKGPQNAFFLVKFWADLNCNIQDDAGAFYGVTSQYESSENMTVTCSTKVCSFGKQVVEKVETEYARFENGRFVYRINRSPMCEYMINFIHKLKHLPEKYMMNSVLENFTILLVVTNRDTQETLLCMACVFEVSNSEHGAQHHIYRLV

Q: Which results are given for `CNC(=O)c1cc2c(c(F)c1-c1c(Cl)c(F)cc3c1C[C@@](CN[C@H]1CC[C@H](C(=O)N4CCC(CC5CCN(C(=O)COc6ccc(N7CCC(=O)NC7=O)c(C)c6)CC5)CC4)CC1)(c1ccccc1)O3)[C@@H](O)[C@@H](C)C2` [KG-FP-003]?
A: EC50 (SmBiT-CRBN+LgBiT-TEAD1): 8 ± 4 nM; KG-FP-003-AUC (867 cancer cell lines; 42MGBA_CENTRAL_NERVOUS_SYSTEM ACH-000323 PR500): 0.75; KG-FP-003-AUC (867 cancer cell lines; 639V_URINARY_TRACT ACH-000973 PR500): 0.67; KG-FP-003-AUC (867 cancer cell lines; 647V_URINARY_TRACT ACH-000896 PR500): 0.66; KG-FP-003-AUC (867 cancer cell lines; 697_HAEMATOPOIETIC_AND_LYMPHOID_TISSUE ACH-000070 PR300): 0.90; KG-FP-003-AUC (867 cancer cell lines; 769P_KIDNEY ACH-000411 PR500): 0.78; KG-FP-003-AUC (867 cancer cell lines; 786O_KIDNEY ACH-000649 PR500): 0.96; KG-FP-003-AUC (867 cancer cell lines; 5637_URINARY_TRACT ACH-000905 PR500): 0.63; KG-FP-003-AUC (867 cancer cell lines; 8305C_THYROID ACH-001306 PR500): 0.73; KG-FP-003-AUC (867 cancer cell lines; 8505C_THYROID ACH-001307 PR500): 0.68; KG-FP-003-AUC (867 cancer cell lines; CBAGPN_BONE ACH-001022 PR300): 0.91; KG-FP-003-AUC (867 cancer cell lines; CCFSTTG1_CENTRAL_NERVOUS_SYSTEM ACH-000329 PR500): 1.00; KG-FP-003-AUC (867 cancer cell lines; CCK81_LARGE_INTESTINE ACH-000963 PR300): 1.00; KG-FP-003-AUC (867 cancer cell lines; CCLFPEDS0003T_SOFT_TISSUE ACH-001164 PR300): 1.00; KG-FP-003-AUC (867 cancer cell lines; CCLP1_BILIARY_TRACT ACH-001959 PR300): 0.63; KG-FP-003-AUC (867 cancer cell lines; CCSW1_BILIARY_TRACT ACH-001960 PR300): 0.99; KG-FP-003-AUC (867 cancer cell lines; CFPAC1_PANCREAS ACH-000138 PR500): 0.95; KG-FP-003-AUC (867 cancer cell lines; CH157MN_CENTRAL_NERVOUS_SYSTEM ACH-000025 PR300): 0.77; KG-FP-003-AUC (867 cancer cell lines; CHAGOK1_LUNG ACH-000867 PR300): 0.78; KG-FP-003-AUC (867 cancer cell lines; CHL1_SKIN ACH-001024 PR500): 1.00; KG-FP-003-AUC (867 cancer cell lines; CHLA06ATRT_SOFT_TISSUE ACH-001028 PR300): 0.99; KG-FP-003-AUC (867 cancer cell lines; CHLA10_BONE ACH-001029 PR300): 0.99; KG-FP-003-AUC (867 cancer cell lines; CHLA15_AUTONOMIC_GANGLIA ACH-001300 PR300): 0.98; KG-FP-003-AUC (867 cancer cell lines; CHLA57_BONE ACH-001033 PR300): 0.75; KG-FP-003-AUC (867 cancer cell lines; CHLA200_CENTRAL_NERVOUS_SYSTEM ACH-001293 PR300): 0.99; KG-FP-003-AUC (867 cancer cell lines; CJM_SKIN ACH-000458 PR500): 0.54; KG-FP-003-AUC (867 cancer cell lines; CL11_LARGE_INTESTINE ACH-000249 PR300): 1.00; KG-FP-003-AUC (867 cancer cell lines; CL34_LARGE_INTESTINE ACH-000895 PR500): 0.99; KG-FP-003-AUC (867 cancer cell lines; CMLT1_HAEMATOPOIETIC_AND_LYMPHOID_TISSUE ACH-000920 PR300): 0.82; KG-FP-003-AUC (867 cancer cell lines; COGAR359_SOFT_TISSUE ACH-001289 PR300): 0.62; KG-FP-003-AUC (867 cancer cell lines; COGE352_BONE ACH-001038 PR300): 0.85; KG-FP-003-AUC (867 cancer cell lines; COGN278_AUTONOMIC_GANGLIA ACH-001301 PR300): 1.00; KG-FP-003-AUC (867 cancer cell lines; COLO320_LARGE_INTESTINE ACH-000202 PR300): 0.97; KG-FP-003-AUC (867 cancer cell lines; COLO668_LUNG ACH-000803 PR500): 1.00; KG-FP-003-AUC (867 cancer cell lines; COLO679_SKIN ACH-000805 PR500): 0.97; KG-FP-003-AUC (867 cancer cell lines; COLO680N_OESOPHAGUS ACH-000717 PR500): 0.91; KG-FP-003-AUC (867 cancer cell lines; COLO741_SKIN ACH-000582 PR500): 1.00; KG-FP-003-AUC (867 cancer cell lines; COLO783_SKIN ACH-000812 PR500): 0.85; KG-FP-003-AUC (867 cancer cell lines; COLO792_SKIN ACH-000968 PR500): 0.98; KG-FP-003-AUC (867 cancer cell lines; COLO800_SKIN ACH-000401 PR500): 0.99; KG-FP-003-AUC (867 cancer cell lines; CORL23_LUNG ACH-000662 PR500): 0.99; KG-FP-003-AUC (867 cancer cell lines; CORL88_LUNG ACH-000508 PR300): 0.94; KG-FP-003-AUC (867 cancer cell lines; CORL105_LUNG ACH-000161 PR500): 0.95; KG-FP-003-AUC (867 cancer cell lines; CORL279_LUNG ACH-000257 PR300): 0.80; KG-FP-003-AUC (867 cancer cell lines; COV318_OVARY ACH-000256 PR300): 0.82; KG-FP-003-AUC (867 cancer cell lines; COV362_OVARY ACH-000278 PR500): 0.94; KG-FP-003-AUC (867 cancer cell lines; COV434_OVARY ACH-000123 PR500): 0.90; KG-FP-003-AUC (867 cancer cell lines; COV644_OVARY ACH-000608 PR300): 0.68; KG-FP-003-AUC (867 cancer cell lines; CW2_LARGE_INTESTINE ACH-000998 PR300): 1.00; KG-FP-003-AUC (867 cancer cell lines; CW9019_SOFT_TISSUE ACH-001050 PR300): 0.68; PRISM AUC (867 cancer cell lines; Cell line: A172, 5 days): 0.43; PRISM AUC (867 cancer cell lines; Cell line: ES2, 5 days): 0.62
